Test results published in patent publication EP0617046A1, “Nucleoside derivatives and antiherpes composition” (NIPPON CHEMIPHAR CO., LTD., priority 1993, dated 1994).
In brackets after ≈: the same amount, converted by molar mass.

Tests used:
[1] = tested on: cytomegalovirus (CMV); conditions: CMV having no thymidine kinase (TK); Clinic and Study, vol. 70, No.8 (1993); cited from earlier work
[2] = tested on: herpes simplex virus (HSV) type 1; conditions: cited from earlier work
[3] = tested on: herpes simplex virus (HSV) type 2; conditions: cited from earlier work
[4] = tested on: TK⁺VZV OKA strain; assay: Assay for antiviral activity (plaque formation in HEL cells); assay type: cell-based, Varicella-zoster virus (VZV); conditions: Human alphaherpesvirus 3, HEL, 120 h, read-out: Antiviral Activity IC₅₀ (µg/mL)
Procedure: (§1) The nucleoside derivative of the invention is further examined in antivairal activity to varicella-zoster virus (VZV) and cytotoxicity by the following tests.
(§2) Human embryonic lung fibroblast (HEL cell, ATCC CCL-137)
(§3) Culture: The cell is cultured in a minimum essential medium (MEM, Gibco) supplemented with 10% inactivated bovine fetal serum, 1% L-glutamine, and 0.3% sodium hydrogen carbonate.
(§4) • (a) Thymidine kinase-positive (TK⁺) strain OKA & YS • (b) Thymidine kinase-deficient (TK⁻) strain YS/R & 07/1
(§5) Cells cultured on a 96-well microtiter plate are inoculated with the virus at an input of 20 plaque formation units (PFU). The cultured cells are incubated at 37°C for 2 hours. Subsequently, remaining virus is removed, and the incubated cells are again cultured in a MEM medium to which are added the test compound, 10% inactivated bovine fetal serum, 1% L-glutamine, and 0.3% sodium hydrogen carbonate in duplicate. After five days culture, the microtiter plate is fixed by ethanol, stained by Giemsa staining method, and microscopically observed for measurement of number of plaques formed. The results are indicated by IC₅₀ (i.e., concentration at which the plaque formation by virus is inhibited by 50%.

[5] = tested on: TK⁻VZV YS/R strain; assay: as above; assay type: cell-based, Varicella-zoster virus (VZV); conditions: Human alphaherpesvirus 3, HEL, 120 h, read-out: Antiviral Activity IC₅₀ (µg/mL)
Procedure: as §1, §2, §3, §4, §5

[6] = tested on: TK⁻VZV 07/1 strain; assay: as above; assay type: cell-based, Varicella-zoster virus (VZV); conditions: Human alphaherpesvirus 3, HEL, 120 h, read-out: Antiviral Activity IC₅₀ (µg/mL)
Procedure: as §1, §2, §3, §4, §5

[7] = tested on: TK⁺VZV YS strain; assay: as above; assay type: cell-based, Varicella-zoster virus (VZV); conditions: Human alphaherpesvirus 3, HEL, 120 h, read-out: Antiviral Activity IC₅₀ (µg/mL)
Procedure: as §1, §2, §3, §4, §5

[8] = Assay for cytotoxicity (cell growth, Coulter Counter); assay type: cell-based; conditions: human; HEL cells; 3 days incubation; cell growth inhibited by 50%; read-out: Cytotoxicity CC₅₀
Procedure: as §2, §3
HEL cellls of 3 x 10³ cells/well are seeded into a 96 well microtiter plate and allowed to proliferate in a MEM medium containing 10% inactivated bovine fetal serum at 37°C for 24 hours. Subsequently, the medium is changed into a MEM medium containing different concentrations of the tested compound, and then the incubation is continued for another 3 days. When monolayer cells are grown to 70%, number of cells is countered by Coulter Counter. The cytotoxicity is indicated by CC₅₀ (i.e., concentration at which the cell growth is inhibited by 50%.).

SMILES | effectiveness to cytomegalovirus (CMV) [1] | concentration showing inhibitory effect [2] | concentration showing inhibitory effect [3] | IC50 [4] | IC50 [5] | IC50 [6] | IC50 [7] | CC50 at 72 h [8]
Nc1nc2c(ncn2COCCO)c(=O)[nH]1 [Acyclovir] | not effective | less than 0.05 µL/mL | less than 0.05 µL/mL |  |  |  |  | 
Nc1ncnc2c1ncn2[C@@H]1O[C@H](COC2(c3ccccc3)c3ccccc3Oc3ccccc32)[C@@H](OC2(c3ccccc3)c3ccccc3Oc3ccccc32)[C@H]1OC1CCCCO1 (some centres unmarked) [Example 2, 2'-O-Tetrahydropyranyl-3',5'-O-di(9-phenylxanthenyl)adenosine] |  |  |  | 2 µg/mL (≈ 2.31 µM) | 2 µg/mL (≈ 2.31 µM) | 0.8 µg/mL (≈ 0.926 µM) | 1 µg/mL (≈ 1.16 µM) | > 50 µg/mL
